Data set [1] deals with rats. As to conditions: cited from earlier work.
Data set [2] has as its system patients. As to conditions: patients under therapeutical treatment; cited from earlier work.
Data set [3] concerns BALB/c mice. Description: Retinal histology / immunolabelling of VGB-treated mice. Format: in vivo. As to conditions: VGB 250 mg/kg i.p. daily for 30 days. As to the method:
(§1) BALB/c mice (16 treated, 10 controls) were purchased from Janvier (Le Genest-St-lsle, France) at six weeks. VGB dissolved in 0.9%
(§2) NaCl at 100 mg/m1 was intraperitoneally injected daily for 30 days at a final concentration of 250 mg/kg as described for animal treatment of epilepsy (Andre V, Ferrandon A, Marescaux C, Nehlig A. Vigabatrin protects against hippocampal damage but is not antiepileptogenic in the lithium-pilocarpine model of temporal lobe epilepsy. Epilepsy Res. 2001;47:99-117). This dose was slightly higher than that prescribed to adult patient ([…]), children (100 mg/kg), or infants ([…]) (Bialer M, Johannessen S I, Kupferberg H J et al. Progress report on new antiepileptic drugs: a summary of the Fifth Eilat Conference (EILAT V). Epilepsy Res. 2001;43:11-58).
(§3) Eye cups were fixed overnight at 4° C. in 4% (wt/vol) paraformaldehyde in phosphate buffered saline (PBS) 0.01 M, pH 7.4. After cryoprotection in PBS containing successively 10%, 20% and 30% sucrose at 4° C., the tissue was embedded in OCT (Labonord, Villeneuve d'Ascq, France). Vertical sections (8-10 μm thickness) were permeabilized for 5 minutes in PBS containing 0.1% Triton X-100 (Sigma, St. Louis, Mo.), rinsed, and incubated in PBS containing 1% bovine serum albumin (Eurobio, Les-Ulis, France), 0.1% Tween 20 (Sigma), and 0.1% sodium azide (Merck, Fontenay-Sous-Bois, France) for 2 hours at room temperature. The primary antibody added to the solution was incubated for 2 hours at room temperature. The polycolonal antibodies were directed against the protein kinase C alpha (PKCα) (1:2000, Sigma), VGluT1 (1:2000, Chemicon), Goα (K-20; 1:100, Santa Cruz), calbindin D-28K (1:500, Chemicon), mouse cone arrestin/ Luminaire junior (LUMIj) (1:20,000, ^27). The monoclonal antibodies were directed against Goα (1:2000, Chemicon), bassoon (1:100, StressGen) and calbindin D-28K (1:500, Sigma). After rinses, sections were incubated with the secondary antibody, goat anti-rabbit IgG or rabbit anti-mouse IgG conjugated to either Alexa TM594 or Alexa TM488 (1:500, Molecular Probes, Eugene, Oreg.) for 2 hours. The dye, diamidiphenyl-indole (DAPI) was added to the last incubated solutions. Sections were rinsed, mounted with Fluorsave reagent (Calbiochem, San Diege, Calif.) and viewed with a Leica microscope (LEICA DM 5000B) equipped with a Ropper scientific camera (Photometrics cool SNAP TM FX).

In data set [4] the test system is BALB/c mice. Description: Light dependence of the vigabatrin-elicited retinal toxicity (darkness vs 12h light/dark cycle). The data set is classed as in vivo. Here is the method: as §1, §2, §3
Albino rats only are sensitive to the VGB-elicited retinal toxicity (Butler W H, Ford G P, Newberne J W. A study of the effects of vigabatrin on the central nervous system and retina of Sprague Dawley and Lister-Hooded rats. Toxicol Pathol. 1987;15:143-148). […]

The mark [5] stands for this setting: animals maintained in a dark room throughout the treatment.

Turning to `C=CC(N)CCC(=O)O` (stereo not shown) [VGB, 4-amino-5-hexenoic acid], the Major retinal changes result in data set [1] was “retinal architecture disorganization, a major glial reaction, cone damages and photoreceptor apoptosis”. Further, the “Undesirable effects on vision” value in data set [2] was “irreversible constriction of the visual field”. For the same molecule, in data set [3] (albino mice), the “Areas with a highly disorganized outer nuclear layer (ONL), animals affected” value is recorded as 5 of 16. For the same molecule, in data set [3] (mice), the “Cone photoreceptor terminals, cone arrestin and Goα immunolabelling” value is recorded as “cone terminals remained in the OPL”; the “Cone photoreceptors, cone arrestin immunolabelling” value is reported as “cone outer segments had disappeared”; the “Contact of rod photoreceptor terminals with postsynaptic neurons, VGLUT1/Goα and bassoon/PKCα double immunolabelling” value is given as “a few synaptic ribbons were not contacted by a rod bipolar cell dendrite”; the “Horizontal cell dendrites, calbindin immunolabelling” value is “horizontal cells extended their dendrites deep into the ONL”. For the same molecule, in data set [3] (mice), the “ON bipolar cell dendrites, Goα immunolabelling” value was “extended their dendrites deep into the ONL”; the “Photoreceptor synaptic ribbon, bassoon immunolabelling” value was “punctuate labelling was observed to penetrate deep into the ONL”; the “Photoreceptor synaptic vesicles, VGLUT1 immunolabelling” value is “observed deep into the ONL”; the “Rod and cone ON bipolar cell plasticity, PKCα and Goα double immunolabelling” value is “both rod and cone ON bipolar cells underwent plasticity”. Further, the “GFAP staining of glial Muller cells” value in data set [3] (mice, vs control albino mice) was “not increased”. For the same molecule, in data set [4] (setting [5]), the “Bipolar cell dendritic growth in the ONL” value is “found not to grow dendrites in the ONL” and the “Photoreceptor terminal withdrawal in the ONL” value is “did not retract their terminals in the ONL”. The “Other retinal damages like ONL disorganization” value in data set [4] (animals maintained in darkness) is given as “not observed”. The “Bipolar cell dendritic growth and photoreceptor terminal withdrawal” value in data set [4] (animals under the 12h light/dark cycle) is “showed the bipolar cell dendritic growth and the photoreceptor terminal withdrawal”.

(Values after patent US20100062987A1, “ANTICONVULSIVE PHARMACEUTICAL COMPOSITIONS” (INSERM (Institut National de la Sante et de la Recherche …, priority 2006, published 2010).)
